Measurements from publication PMC6929321 (Clinical drug investigation, 2019).
Read-outs that look alike come from different tables or passages of the source.

Columns and labels:
[1] = Suvorexant pharmacokinetics across both trials; type: in vivo; conditions: human, plasma, oral
[2] = Study P038 rifampin sub-study: adverse events; type: in vivo, human; conditions: for AE: Abnormal dreams / AE: Diarrhea / AE: Headache / AE: Nausea / AE: Somnolence / AE: Vessel puncture site hematoma / ECI: Euphoric mood / ECI: Hypnagogic hallucination / ECI: Hypnopompic hallucination / ECI: Sleep paralysis / Subjects with ≥ 1 AE: Study P038 rifampin sub-study, N = 10
[3] = type: in vivo, human
[4] = Study P008: adverse events; type: in vivo, human; conditions: for AE: Abnormal dreams / AE: Diarrhea / AE: Headache / AE: Nausea / AE: Somnolence / AE: Vessel puncture site hematoma / ECI: Euphoric mood / ECI: Hypnagogic hallucination / ECI: Hypnopompic hallucination / ECI: Sleep paralysis / Subjects with ≥ 1 AE: N = 10
[5] = type: in vivo, human; remark: listed apart in the source
[6] = type: in vivo, human; remark: listed apart in the source
[7] = in vivo; cited from earlier work
[8] = Safety assessments across both studies; type: in vivo, human
[9] = Study P038 diltiazem sub-study: adverse events; type: in vivo, human; conditions: for AE: Abnormal dreams / AE: Diarrhea / AE: Headache / AE: Nausea / AE: Somnolence / AE: Vessel puncture site hematoma / ECI: Euphoric mood / ECI: Hypnagogic hallucination / ECI: Hypnopompic hallucination / ECI: Sleep paralysis / Subjects with ≥ 1 AE: Study P038 diltiazem sub-study, N = 20
[10] = suvorexant 40 mg alone, listed as suvorexant
[11] = suvorexant 20 mg + diltiazem, listed as suvorexant

SMILES: Cc1ccc(-n2nccn2)c(C(=O)N2CCN(c3nc4cc(Cl)ccc4o3)CC[C@H]2C)c1 [Suvorexant, suvorexant]
- Tmax [1]: 1 to 2 h
- half-life ([1]; 40 mg): 11.2 to 12.9 h
- AE: Abnormal dreams ([2]; suvorexant 40 mg + rifampin): 3 (30) n (%)
- AE: Diarrhea ([2]; suvorexant 40 mg + rifampin): 0 (0) n (%)
- AE: Headache ([2]; suvorexant 40 mg + rifampin): 2 (20) n (%)
- AE: Nausea ([2]; suvorexant 40 mg + rifampin): 0 (0) n (%)
- AE: Somnolence ([2]; suvorexant 40 mg + rifampin): 9 (90) n (%)
- AE: Vessel puncture site hematoma ([2]; suvorexant 40 mg + rifampin): 0 (0) n (%)
- ECI: Euphoric mood ([2]; suvorexant 40 mg + rifampin): 0 (0) n (%)
- ECI: Hypnagogic hallucination ([2]; suvorexant 40 mg + rifampin): 0 (0) n (%)
- ECI: Hypnopompic hallucination ([2]; suvorexant 40 mg + rifampin): 0 (0) n (%)
- ECI: Sleep paralysis ([2]; suvorexant 40 mg + rifampin): 0 (0) n (%)
- Subjects with ≥ 1 AE ([2]; suvorexant 40 mg + rifampin): 10 (100) n (%)
- Subjects with ≥ 1 AE ([2]; suvorexant 40 mg + rifampin, listed as suvorexant): 10 (100%) n (%)
- AE: Abnormal dreams ([2]; suvorexant 40 mg alone): 2 (20) n (%)
- AE: Diarrhea ([2]; suvorexant 40 mg alone): 0 (0) n (%)
- AE: Headache ([2]; suvorexant 40 mg alone): 1 (10) n (%)
- AE: Nausea ([2]; suvorexant 40 mg alone): 0 (0) n (%)
- AE: Somnolence ([2]; suvorexant 40 mg alone): 10 (100) n (%)
- AE: Vessel puncture site hematoma ([2]; suvorexant 40 mg alone): 3 (30) n (%)
- ECI: Euphoric mood ([2]; suvorexant 40 mg alone): 1 (10) n (%)
- ECI: Hypnagogic hallucination ([2]; suvorexant 40 mg alone): 1 (10) n (%)
- ECI: Hypnopompic hallucination ([2]; suvorexant 40 mg alone): 1 (10) n (%)
- ECI: Sleep paralysis ([2]; suvorexant 40 mg alone): 1 (10) n (%)
- Subjects with ≥ 1 AE ([2]; suvorexant 40 mg alone): 10 (100) n (%)
- ECI: Euphoric mood [2, 10]: 1 n (%)
- ECI: Hypnagogic hallucination [2, 10]: 1 n (%)
- ECI: Hypnopompic hallucination [2, 10]: 1 n (%)
- ECI: Sleep paralysis [2, 10]: 1 n (%)
- Subjects with ≥ 1 AE [2, 10]: 10 (100%) n (%)
- Duration of ECI hypnopompic hallucination ([2]; suvorexant 40 mg in the rifampin sub-study): 1 min
- Prolongation (increase) in t½ on co-administration with diltiazem ([3]; Study P038 diltiazem sub-study, suvorexant 20 mg, diltiazem 240 mg once daily): 3.7 h
- AUC(0-inf) ([3]; human, plasma, po, 20 mg): 7.88 µM·h
- Cmax ([3]; human, plasma, po, 20 mg): 620 nM
- Tmax ([3]; human, plasma, po, 20 mg): 1.5 h
- half-life ([3]; human, plasma, po, 20 mg): 12.4 h
- AE: Abnormal dreams ([4]; suvorexant 4 mg + ketoconazole): 0 (0) n (%)
- AE: Diarrhea ([4]; suvorexant 4 mg + ketoconazole): 0 (0) n (%)
- AE: Headache ([4]; suvorexant 4 mg + ketoconazole): 1 (10) n (%)
- AE: Nausea ([4]; suvorexant 4 mg + ketoconazole): 0 (0) n (%)
- AE: Somnolence ([4]; suvorexant 4 mg + ketoconazole): 7 (70) n (%)
- AE: Vessel puncture site hematoma ([4]; suvorexant 4 mg + ketoconazole): 0 (0) n (%)
- ECI: Euphoric mood ([4]; suvorexant 4 mg + ketoconazole): 0 (0) n (%)
- ECI: Hypnagogic hallucination ([4]; suvorexant 4 mg + ketoconazole): 0 (0) n (%)
- ECI: Hypnopompic hallucination ([4]; suvorexant 4 mg + ketoconazole): 0 (0) n (%)
- ECI: Sleep paralysis ([4]; suvorexant 4 mg + ketoconazole): 0 (0) n (%)
- Subjects with ≥ 1 AE ([4]; suvorexant 4 mg + ketoconazole): 7 (70) n (%)
- AEs considered events of clinical interest (ECIs) ([4]; suvorexant 4 mg alone or with ketoconazole): no AEs were considered to be ECIs
- AE: Abnormal dreams ([4]; suvorexant 4 mg alone): 0 (0) n (%)
- AE: Diarrhea ([4]; suvorexant 4 mg alone): 0 (0) n (%)
- AE: Headache ([4]; suvorexant 4 mg alone): 0 (0) n (%)
- AE: Nausea ([4]; suvorexant 4 mg alone): 0 (0) n (%)
- AE: Somnolence ([4]; suvorexant 4 mg alone): 6 (60) n (%)
- AE: Vessel puncture site hematoma ([4]; suvorexant 4 mg alone): 0 (0) n (%)
- ECI: Euphoric mood ([4]; suvorexant 4 mg alone): 0 (0) n (%)
- ECI: Hypnagogic hallucination ([4]; suvorexant 4 mg alone): 0 (0) n (%)
- ECI: Hypnopompic hallucination ([4]; suvorexant 4 mg alone): 0 (0) n (%)
- ECI: Sleep paralysis ([4]; suvorexant 4 mg alone): 0 (0) n (%)
- Subjects with ≥ 1 AE ([4]; suvorexant 4 mg alone): 6 (60) n (%)
- Prolongation (increase) in t½ on co-administration with ketoconazole ([5]; Study P008, suvorexant 4 mg, ketoconazole 400 mg once daily): 8.2 h
- AUC(0-inf) ([5]; human, plasma, po, 4 mg): 2.61 µM·h
- Cmax ([5]; human, plasma, po, 4 mg): 280 nM
- Tmax ([5]; human, plasma, po, 4 mg): 1 h
- half-life ([5]; human, plasma, po, 4 mg): 11.2 h
- Decrease in suvorexant Cmax on co-administration with rifampin ([6]; Study P038, suvorexant 40 mg, rifampin 600 mg once daily): 64%
- AUC(0-inf) ([6]; human, plasma, po, 40 mg): 13.6 µM·h
- Cmax ([6]; human, plasma, po, 40 mg): 850 nM
- Tmax ([6]; human, plasma, po, 40 mg): 2 h
- half-life ([6]; human, plasma, po, 40 mg): 12.9 h
- Effect on psychomotor performance [7]: no clinically meaningful effect on psycho-motor performance
- Reaction time (choice reaction time and simple reaction time) [7]: statistically significant prolongation in reaction time
- Changes in vital signs, laboratory safety tests, physical examination, or ECG monitoring ([8]; across both studies): no clinically meaningful changes
- Intensity of AEs ([8]; both trials, the moderate AE was in the P038 diltiazem sub-study): All AEs were mild in intensity, except one moderate AE of headache
- Serious AEs or deaths ([8]; either trial (P008, P038), suvorexant alone or with CYP3A inhibitor/inducer): no serious AEs or deaths
- Tolerability of single suvorexant doses ([8]; healthy subjects, co-administered with/without a CYP3A inhibitor/inducer): generally well tolerated
- AE: Abnormal dreams ([9]; suvorexant 20 mg + diltiazem): 1 (5) n (%)
- AE: Diarrhea ([9]; suvorexant 20 mg + diltiazem): 0 (0) n (%)
- AE: Headache ([9]; suvorexant 20 mg + diltiazem): 1 (5) n (%)
- AE: Nausea ([9]; suvorexant 20 mg + diltiazem): 0 (0) n (%)
- AE: Somnolence ([9]; suvorexant 20 mg + diltiazem): 17 (85) n (%)
- AE: Vessel puncture site hematoma ([9]; suvorexant 20 mg + diltiazem): 1 (5) n (%)
- ECI: Euphoric mood ([9]; suvorexant 20 mg + diltiazem): 1 (5) n (%)
- ECI: Hypnagogic hallucination ([9]; suvorexant 20 mg + diltiazem): 0 (0) n (%)
- ECI: Hypnopompic hallucination ([9]; suvorexant 20 mg + diltiazem): 0 (0) n (%)
- ECI: Sleep paralysis ([9]; suvorexant 20 mg + diltiazem): 0 (0) n (%)
- Subjects with ≥ 1 AE ([9]; suvorexant 20 mg + diltiazem): 18 (90) n (%)
- ECI: Euphoric mood [9, 11]: 1 n (%)
- Subjects with ≥ 1 AE [9, 11]: 18 (90%) n (%)
- AE: Abnormal dreams ([9]; suvorexant 20 mg alone): 1 (5) n (%)
- AE: Diarrhea ([9]; suvorexant 20 mg alone): 2 (10) n (%)
- AE: Headache ([9]; suvorexant 20 mg alone): 0 (0) n (%)
- AE: Nausea ([9]; suvorexant 20 mg alone): 2 (10) n (%)
- AE: Somnolence ([9]; suvorexant 20 mg alone): 19 (95) n (%)
- AE: Vessel puncture site hematoma ([9]; suvorexant 20 mg alone): 1 (5) n (%)
- ECI: Euphoric mood ([9]; suvorexant 20 mg alone): 0 (0) n (%)
- ECI: Hypnagogic hallucination ([9]; suvorexant 20 mg alone): 0 (0) n (%)
- ECI: Hypnopompic hallucination ([9]; suvorexant 20 mg alone): 0 (0) n (%)
- ECI: Sleep paralysis ([9]; suvorexant 20 mg alone): 0 (0) n (%)
- Subjects with ≥ 1 AE ([9]; suvorexant 20 mg alone): 20 (100) n (%)
- Subjects with ≥ 1 AE ([9]; suvorexant 20 mg alone, listed as suvorexant): 20 (100%) n (%)
- Duration of ECI euphoric mood ([9]; suvorexant 20 mg plus diltiazem): 1 h
